Test results reported in patent US9315458B2, “Nitrogen-containing heterocyclic compound” (Takeda Pharmaceutical Company Limited, priority 2014, dated 2016).
pEC50: −log10 of the molar value.

Target: T1, human M1 receptor (hCHRM1) (Homo sapiens, UniProt P11229)
T1 construct: expressed in transfected cells
T1 sequence (P11229 1-460): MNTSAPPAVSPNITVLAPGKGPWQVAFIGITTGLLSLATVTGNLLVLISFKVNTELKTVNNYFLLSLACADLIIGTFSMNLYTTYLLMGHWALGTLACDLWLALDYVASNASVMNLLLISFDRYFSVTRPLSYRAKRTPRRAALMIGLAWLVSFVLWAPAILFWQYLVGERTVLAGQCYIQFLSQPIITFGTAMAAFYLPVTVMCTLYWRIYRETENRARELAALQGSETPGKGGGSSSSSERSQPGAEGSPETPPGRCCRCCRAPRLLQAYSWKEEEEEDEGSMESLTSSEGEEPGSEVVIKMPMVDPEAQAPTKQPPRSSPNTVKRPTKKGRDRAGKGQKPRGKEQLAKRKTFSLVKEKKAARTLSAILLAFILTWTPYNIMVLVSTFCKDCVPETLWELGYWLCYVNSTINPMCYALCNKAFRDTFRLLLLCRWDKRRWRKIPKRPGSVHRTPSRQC
Assay: Measurement of M1 receptor positive allosteric modulator (M1PAM) activity, calcium fluorescence (FLIPRtetra) with acetylcholine at EC20
Format: cell-based
Settings: for activity (%) at 10 μM: 10 μM test compound, 100% = acetylcholine 1 μM, 0% = DMSO, acetylcholine at EC20; for pEC50: inflection point of concentration-dependent curve, CHO-K1 cells expressing hCHRM1, acetylcholine at EC20 (final 0.6-0.8 nM), read-out: IP value
Description: The activity of a test compound in the presence of acetylcholine at EC20 concentration (final concentration 0.6-0.8 nM), which affords an action corresponding to about 20% of the maximum activity, was measured as PAM activity. The method is as follows. CHO-K1 cells stably expressing a human M1 receptor (hCHRM1) were plated on a 384-well black clear bottom plate (BD Falcon) at 5,000 cells/well, and cultured in an incubator at 37° C., 5% CO2 for 1 day. The medium in the cell plate was removed, and assay buffer A (Recording medium (DOJINDO LABORATORIES), 0.1% BSA (Wako Pure Chemical Industries, Ltd.), 2.5 μg/mL Fluo-4 AM (DOJINDO LABORATORIES), 0.08% Pluronic F127 (DOJINDO LABORATORIES), 1.25 mM probenecid (DOJINDO LABORATORIES)) containing a calcium indicator was added at 30 μL/well. The cells were left standing in the incubator at 37° C., 5% CO2 for 30 min, and further left standing at room temperature for 30 min. A test compound prepared by diluting with assay buffer B (HBSS (Invitrogen), 20 mM HEPES (Invitrogen), 0.1% BSA) containing 2.4-3.2 nM acetylcholine was added at 10 μL/well, and the fluorescence was measured by FLIPRtetra (Molecular Devices) for 1 min every 1 second. With the definition that the amount of change in the fluorescence on addition of acetylcholine (final concentration 1 μM) is 100% and that on addition of DMSO instead of a test compound is 0%, the activity (%) of the test compound was calculated, and the inflection point in the concentration-dependent curve of the test compound was calculated as IP values.

SMILES | activity (%) at 10 μM | pEC50
CCc1cc2c(cc1Cc1ccc(-n3cccn3)cc1)C(=O)N([C@H]1CCC[C@@H]1O)C2 (racemic) [Example 59, rac-5-ethyl-2-(trans-2-hydroxycyclopentyl)-6-(4-(1H-pyrazol-1-yl)benzyl)isoindolin-1-one] | 100% | 7.47
CCc1cc2c(cc1Cc1ccc(-c3ccn(C)n3)cc1)C(=O)N([C@H]1CCC[C@@H]1O)C2 (racemic) [Example 63, rac-5-ethyl-2-(trans-2-hydroxycyclopentyl)-6-(4-(1-methyl-1H-pyrazol-3-yl)benzyl)isoindolin-1-one] | 99% | 7.35
Cn1cc(-c2ccc(Cc3cc4c(cc3C3CC3)CN([C@H]3CCC[C@@H]3O)C4=O)cc2)nn1 (racemic) [Example 64, rac-5-cyclopropyl-2-(trans-2-hydroxycyclopentyl)-6-(4-(1-methyl-1H-1,2,3-triazol-4-yl)benzyl)isoindolin-1-one] | 104% | 7.66
Cc1cc2c(cc1Cc1ccc(-c3cnn(C)c3)cc1)C(=O)N([C@H]1CCC[C@@H]1O)C2 (racemic) [Example 67, rac-2-(trans-2-hydroxycyclopentyl)-5-methyl-6-(4-(1-methyl-1H-pyrazol-4-yl)benzyl)isoindolin-1-one] | 93% | 7.59
Cc1c(Cc2ccc(-c3cnn(C)c3)cc2)cc2c(c1C)CN([C@H]1CCC[C@@H]1O)C2=O (racemic) [Example 69, rac-2-(trans-2-hydroxycyclopentyl)-4,5-dimethyl-6-(4-(1-methyl-1H-pyrazol-4-yl)benzyl)isoindolin-1-one] | 95% | 7.89
Cc1c(Cc2ccc(-c3ccn(C)n3)cc2F)cc2c(c1C)CN([C@H]1CCC[C@@H]1O)C2=O (racemic) [Example 71, rac-6-(2-fluoro-4-(1-methyl-1H-pyrazol-3-yl)benzyl)-2-(trans-2-hydroxycyclopentyl)-4,5-dimethylisoindolin-1-one] | 100% | 7.25
Cn1cc(-c2ccc(Cc3cc4c(cc3Cl)CN([C@H]3CCCC[C@@H]3O)C4=O)cc2)cn1 (racemic) [Example 75, rac-5-chloro-2-(trans-2-hydroxycyclohexyl)-6-(4-(1-methyl-1H-pyrazol-4-yl)benzyl)isoindolin-1-one] | 97% | 7.64
Cc1c(Cc2ccc(-n3cccn3)cc2)cc2c(c1F)CN([C@H]1CCCC[C@@H]1O)C2=O (racemic) [Example 78, rac-4-fluoro-2-(trans-2-hydroxycyclohexyl)-5-methyl-6-(4-(1H-pyrazol-1-yl)benzyl)isoindolin-1-one] | 95% | 8.06
Cc1c(Cc2ccc(-n3cccn3)cc2)cc2c(c1F)CN([C@H]1CCC[C@@H]1O)C2=O (racemic) [Example 79, rac-4-fluoro-2-(trans-2-hydroxycyclopentyl)-5-methyl-6-(4-(1H-pyrazol-1-yl)benzyl)isoindolin-1-one] | 93% | 7.14
Cc1c(Cc2ccc(-c3ccn(C)n3)cc2)cc2c(c1C)CN([C@H]1CCCC[C@@H]1O)C2=O (racemic) [Example 82, rac-2-(trans-2-hydroxycyclohexyl)-4,5-dimethyl-6-(4-(1-methyl-1H-pyrazol-3-yl)benzyl)isoindolin-1-one] | 91% | 8.24
Cc1c(Cc2ccc(-c3ccn(C)n3)cc2)cc2c(c1C)CN([C@H]1CCC[C@@H]1O)C2=O (racemic) [Example 83, rac-2-(trans-2-hydroxycyclopentyl)-4,5-dimethyl-6-(4-(1-methyl-1H-pyrazol-3-yl)benzyl)isoindolin-1-one] | 92% | 7.89
O=C1c2cc(Cc3ccc(-n4cccn4)cc3)c(C(F)(F)F)c(Cl)c2CN1[C@H]1CCC[C@@H]1O (racemic) [Example 88, rac-4-chloro-2-(trans-2-hydroxycyclopentyl)-6-(4-(1H-pyrazol-1-yl)benzyl)-5-(trifluoromethyl)isoindolin-1-one] | 98% | 7.07
Cc1c(Cc2ccc(-c3cnn(C)c3)cc2)cc2c(c1C)CN([C@H]1CCCC[C@@H]1O)C2=O (racemic) [Example 89, rac-2-(trans-2-hydroxycyclohexyl)-4,5-dimethyl-6-(4-(1-methyl-1H-pyrazol-4-yl)benzyl)isoindolin-1-one] | 94% | 8.24
Cc1cc(-c2ccc(Cc3cc4c(cc3C)CN([C@H]3CCC[C@@H]3O)C4=O)cc2)cnn1 (racemic) [Example 91, rac-2-(trans-2-hydroxycyclopentyl)-5-methyl-6-(4-(6-methylpyridazin-4-yl)benzyl)isoindolin-1-one] | 95% | 7.42

The next lines start with the values.

activity (%) at 10 μM | pEC50 | SMILES
91% | 7.22 | COc1c(Cc2ccc(-n3cccn3)cc2)cc2c(c1Cl)CN([C@H]1CCC[C@@H]1O)C2=O (racemic) [Example 92, rac-4-chloro-2-(trans-2-hydroxycyclopentyl)-5-methoxy-6-(4-(1H-pyrazol-1-yl)benzyl)isoindolin-1-one]
94% | 8.25 | Cc1c(Cc2ccc(-n3cccn3)cc2)cc2c(c1Cl)CN([C@H]1CCCC[C@@H]1O)C2=O (racemic) [Example 93, rac-4-chloro-2-(trans-2-hydroxycyclohexyl)-5-methyl-6-(4-(1H-pyrazol-1-yl)benzyl)isoindolin-1-one]
92% | 8.02 | Cc1nn(C)cc1-c1ccc(Cc2cc3c(c(C)c2C)CN([C@H]2CCCC[C@@H]2O)C3=O)c(F)c1 (racemic) [Example 94, rac-6-(4-(1,3-dimethyl-1H-pyrazol-4-yl)-2-fluorobenzyl)-2-(trans-2-hydroxycyclohexyl)-4,5-dimethylisoindolin-1-one]
92% | 7.59 | Cc1nn(C)cc1-c1ccc(Cc2cc3c(c(C)c2C)CN([C@H]2CCC[C@@H]2O)C3=O)c(F)c1 (racemic) [Example 95, rac-6-(4-(1,3-dimethyl-1H-pyrazol-4-yl)-2-fluorobenzyl)-2-(trans-2-hydroxycyclopentyl)-4,5-dimethylisoindolin-1-one]
96% | 8.28 | COc1c(Cc2ccc(-n3cccn3)cc2)cc2c(c1F)CN([C@H]1CCCC[C@@H]1O)C2=O (racemic) [Example 97, rac-4-fluoro-2-(trans-2-hydroxycyclohexyl)-5-methoxy-6-(4-(1H-pyrazol-1-yl)benzyl)isoindolin-1-one]
103% | 7.80 | Cc1cc(-c2ccc(Cc3cc4c(cc3C)CN([C@H]3CCCC[C@@H]3O)C4=O)cc2)ccn1 (racemic) [Example 99, rac-2-(trans-2-hydroxycyclohexyl)-5-methyl-6-(4-(2-methylpyridin-4-yl)benzyl)isoindolin-1-one]
101% | 7.03 | Cc1cc(-c2ccc(Cc3cc4c(cc3C)CN([C@H]3CCC[C@@H]3O)C4=O)cc2)ccn1 (racemic) [Example 100, rac-2-(trans-2-hydroxycyclopentyl)-5-methyl-6-(4-(2-methylpyridin-4-yl)benzyl)isoindolin-1-one]
91% | 7.89 | Cc1c(Cc2ccc(-n3cccn3)cc2)cc2c(c1Cl)CN([C@H]1CCC[C@@H]1O)C2=O (racemic) [Example 102, rac-4-chloro-2-(trans-2-hydroxycyclopentyl)-5-methyl-6-(4-(1H-pyrazol-1-yl)benzyl)isoindolin-1-one]
92% | 7.96 | CCc1cc2c(cc1Cc1ccc(-c3cn(C)nn3)cc1)C(=O)N([C@H]1CCC[C@@H]1O)C2 (racemic) [Example 106, rac-5-ethyl-2-(trans-2-hydroxycyclopentyl)-6-(4-(1-methyl-1H-1,2,3-triazol-4-yl)benzyl)isoindolin-1-one]
93% | 7.52 | Cc1c(Cc2ccc(C#N)cc2F)cc2c(c1C)CN([C@H]1COCC[C@@H]1O)C2=O (racemic) [Example 112, rac-3-fluoro-4-((2-(trans-4-hydroxytetrahydro-2H-pyran-3-yl)-6,7-dimethyl-3-oxo-2,3-dihydro-1H-isoindol-5-yl)methyl)benzonitrile]
